Measurements taken from ChEMBL document CHEMBL5154926, “Discovery of a Novel Series of Imipridone Compounds as Homo sapiens Caseinolytic Protease P Agonists with Potent Antitumor Activities In Vitro and In Vivo” (J Med Chem, 2022).
Converted amounts (≈) assume the structure as drawn.

Legend:
[1] = test system: HCT-116; assay: cells; details: Homo sapiens, HCT-116, 48 h
Description: Antiproliferative activity against human HCT-116 cells incubated for 48 hrs by CCK-8 assay

[2] = target: ATP-dependent Clp protease proteolytic subunit, mitochondrial (Homo sapiens, UniProt Q16740); assay: Agonist activity at human CLpP (57 to 277 amino acids) expressed in Escherichia coli using fluorogenic peptide AC-WLA-AMC as substrate incubated for 10 mins by fluorescence based assay
ATP-dependent Clp protease proteolytic subunit, mitochondrial, sequence (Q16740 whole entry, the tested form may be a part): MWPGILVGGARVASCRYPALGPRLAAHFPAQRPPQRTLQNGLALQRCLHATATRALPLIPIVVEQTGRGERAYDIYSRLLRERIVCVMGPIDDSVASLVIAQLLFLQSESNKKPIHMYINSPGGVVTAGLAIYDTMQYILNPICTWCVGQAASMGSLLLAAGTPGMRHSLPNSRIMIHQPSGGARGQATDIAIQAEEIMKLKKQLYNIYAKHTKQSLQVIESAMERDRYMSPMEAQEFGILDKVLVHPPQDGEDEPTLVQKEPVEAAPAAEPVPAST

[3] = test system: DLD-1; assay: cells; details: Homo sapiens, DLD-1, 48 h
Description: Antiproliferative activity against human DLD-1 cells incubated for 48 hrs by CCK-8 assay

[4] = test system: SW480; assay: cells; details: Homo sapiens, SW480, 48 h
Description: Antiproliferative activity against human SW480 cells incubated for 48 hrs by CCK-8 assay

[5] = test system: SW-620; assay: cells; details: Homo sapiens, SW-620, 48 h
Description: Antiproliferative activity against human SW-620 cells incubated for 48 hrs by CCK-8 assay

[6] = test system: HCT-15; assay: cells; details: Homo sapiens, HCT-15, 48 h
Description: Antiproliferative activity against human HCT-15 cells incubated for 48 hrs by CCK-8 assay

[7] = test system: HT-29; assay: cells; details: Homo sapiens, HT-29, 48 h
Description: Antiproliferative activity against human HT-29 cells incubated for 48 hrs by CCK-8 assay

[8] = Stability in rat liver microsomes assessed as half life at 1.5 uM measured upto 90 mins in presence of NADPH by LC/MS analysis; format: ADME, Microsome; details: 1.5 h
[9] = Stability in human liver microsomes assessed as intrinsic clearance at 1.5 uM measured upto 90 mins in presence of NADPH by LC/MS analysis; format: ADME, Microsome; details: read-out: CLH
[10] = Aqueous solubility of the compound agitated for 24 hrs by HPLC analysis; format: physicochemical; details: buffer
[11] = 1-octanol/water partition coefficient, log P of the compound agitated for 4 hrs measured by shake flask assay based HPLC analysis; format: physicochemical
[12] = Stability in human liver microsomes assessed as half life at 1.5 uM measured upto 90 mins in presence of NADPH by LC/MS analysis; format: ADME, Microsome; details: microsomes, 1.5 h, 1.5 µM

Structure (SMILES) | IC50 [1] [nM] | EC50 [2] [nM] | further results
CCN1CCn2c1nc(=O)c1c2CCN(Cc2ccccc2)C1 | > 10000 | > 10000 | 
Cc1ccccc1CN1CCn2c1nc(=O)c1c2C(F)(F)CN(Cc2ccccc2)C1 | 5100 | 500 | 
COc1cccc(CN2CCn3c2nc(=O)c2c3CCN(Cc3ccccc3)C2)c1 | 1200 | 100 | 
Cc1ccccc1CN1CCn2c1nc(=O)c1c2CCN(C(=O)c2ccccc2)C1 | > 10000 | > 10000 | 
O=c1nc2n(c3c1CN(Cc1ccccc1)CC3)CCN2Cc1ccncc1 | > 10000 | 1130 | 
O=c1nc2n(c3c1CN(Cc1ccccc1)CC3)CCN2Cc1ccc(F)cc1F | 100 | 160 | IC50 [3]: 90 nM; IC50 [4]: 120 nM; IC50 [5]: 90 nM; IC50 [6]: 120 nM; IC50 [7]: 80 nM
COc1ccccc1CN1CCn2c1nc(=O)c1c2CCN(Cc2ccccc2)C1 | 1340 | 110 | 
Cc1ccccc1CN1CCn2c1nc(=O)c1c2CCN(CC2CC2)C1 | > 10000 | > 10000 | 
COc1ccc(CN2CCn3c2nc(=O)c2c3CCN(Cc3ccccc3)C2)cc1 | 1160 | 500 | 
O=c1nc2n(c3c1CN(Cc1ccccc1)CC3)CCN2Cc1ccc(F)c(F)c1 | 100 | 300 | IC50 [3]: 150 nM; IC50 [4]: 120 nM; IC50 [5]: 150 nM; IC50 [6]: 200 nM; IC50 [7]: 50 nM
Cc1ccccc1CN1CCn2c1nc(=O)c1c2CCN(c2nncs2)C1 | > 10000 | > 10000 | 
Cc1ccccc1CN1CCn2c1nc(=O)c1c2CCN(Cc2ccncc2)C1 | > 10000 | 1610 | 
O=c1nc2n(c3c1CN(Cc1ccccc1)CC3)CCN2Cc1cccc(Cl)c1 | 190 | 280 | 
Cc1ccccc1CN1C(=O)C2=C(CCN(Cc3ccccc3)C2)N2CCN=C12 [DORDAVIPRONE] |  |  | t1/2 [8]: 10.5 min; CLint scaled at 1.5 µM [9]: 187 mL/min/kg; solubility at 24 h [10]: 200 µM (≈ 77.4 µg/mL); logP at 4 h [11]: 2.93
Cc1ccccc1CN1CCn2c1nc(=O)c1c2CCN(Cc2cccnc2)C1 | > 10000 | 1640 | 
Cc1ccccc1CN1CCn2c1nc(=O)c1c2CCN(CCc2ccccc2)C1 | 6010 | 1090 | 
Cc1ccccc1CN1CCn2c1nc(=O)c1c2CCN(Cc2ccc(F)cc2F)C1 | > 10000 | 980 | 
O=c1nc2n(c3c1CN(Cc1ccccc1)CC3)CCN2Cc1ccc(Cl)cc1 | 80 | 300 | IC50 [3]: 100 nM; IC50 [4]: 100 nM; IC50 [5]: 170 nM; IC50 [6]: 250 nM; IC50 [7]: 70 nM
O=c1nc2n(c3c1CN(Cc1ccccc1)CC3)CCN2Cc1ccc2ccccc2c1 | 310 | 360 | 
O=c1nc2n(c3c1CN(Cc1ccccc1)CC3)CCN2Cc1ccc(Br)c(F)c1 | 110 | 210 | 
Cc1ccccc1CN1CCn2c1nc(=O)c1c2CCN(CC(C)C)C1 | > 10000 | > 10000 | 
O=c1nc2n(c3c1CN(Cc1ccccc1)CC3)CCN2Cc1ccccc1Cl | 310 | 190 | 
Cc1ccccc1CN1CCCn2c1nc(=O)c1c2CCN(Cc2ccccc2)C1 | > 10000 | 3520 | 
O=c1nc2n(c3c1CN(Cc1ccccc1)CC3)CCN2CCc1ccccc1 | > 10000 | 420 | 
Cc1ccccc1CN1CCn2c1nc(=O)c1c2CCN(Cc2cccc(C#N)c2)C1 | 500 | 580 | 
O=c1nc2n(c3c1CN(Cc1ccccc1)CC3)CCN2Cc1cccnc1 | > 10000 | 1040 | 

Structure (SMILES) | IC50 [1] [nM] | EC50 [2] [nM] | further results
Cc1ccccc1CN1CCn2c1nc(=O)c1c2CCN(Cc2ccc(F)cc2)C1 | 10000 | 640 | 
Cc1ccc(CN2CCc3c(c(=O)nc4n3CCN4Cc3ccccc3C)C2)cc1 | 5310 | 640 | 
O=c1nc2n(c3c1CN(Cc1ccccc1)CC3)CCN2Cc1cccc(Br)c1 | 610 | 360 | 
O=c1nc2n(c3c1CN(Cc1ccccc1)CC3)CCN2Cc1ccco1 | > 10000 | 1760 | 
O=c1nc2n(c3c1CN(Cc1ccccc1)CC3)CCN2CC1CCCCC1 | 2460 | 130 | 
CN1CCn2c1nc(=O)c1c2CCN(Cc2ccccc2)C1 | > 10000 | > 10000 | 
O=c1nc2n(c3c1CN(Cc1ccccc1)CC3)CCN2Cc1cccc(F)c1 | 220 | 260 | 
CC(C)CCN1CCn2c1nc(=O)c1c2CCN(Cc2ccccc2)C1 | 4200 | 450 | 
CCN1CCc2c(c(=O)nc3n2CCN3Cc2ccccc2C)C1 | > 10000 | > 10000 | 
Cc1ccccc1CN1CCn2c1nc(=O)c1c2CCN(Cc2ccc(F)c(F)c2)C1 | 5000 | 320 | 
O=c1nc2n(c3c1CN(Cc1ccccc1)CC3)CCN2c1ccccc1 | > 10000 | 1040 | 
O=c1nc2n(c3c1CN(Cc1ccccc1)CC3)CCN2Cc1ccc(F)cc1 | 80 | 130 | IC50 [3]: 90 nM; IC50 [4]: 170 nM; IC50 [5]: 190 nM; IC50 [6]: 210 nM; IC50 [7]: 400 nM
O=c1nc2n(c3c1CN(Cc1ccccc1)CC3)CCN2CC1CC1 | > 10000 | 1220 | 
Cc1ccccc1CN1CCn2c1nc(=O)c1c2CCN(Cc2ccccc2C#N)C1 | > 10000 | 660 | 
Cc1ccccc1CN1CCn2c1nc(=O)c1c2CCN(CCCCc2ccccc2)C1 | > 10000 | > 10000 | 
Cc1ccccc1CN1CCn2c1nc(=O)c1c2CCN(C(=O)Cc2ccccc2)C1 | > 10000 | > 10000 | 
Cc1ccc(CN2CCn3c2nc(=O)c2c3CCN(Cc3ccccc3)C2)cc1 | 210 | 320 | 
O=c1nc2n(c3c1CN(Cc1ccccc1)CC3)CCN2Cc1ccccc1F | 290 | 440 | 
Cc1ccccc1CN1CCn2c1nc(=O)c1c2CCN(CC2CCCCC2)C1 | > 10000 | 2410 | 
O=c1nc2n(c3c1CN(Cc1ccccc1)CC3)CCN2Cc1ccc(C(F)(F)F)cc1 | 320 | 290 | 
O=C(c1ccc(F)cc1)C1CCN(CCn2c(=O)[nH]c3ccccc3c2=O)CC1 [KETANSERIN] |  |  | t1/2 [8]: 18.5 min; t1/2 [12]: 34 min; CLint scaled at 1.5 µM [9]: 51.1 mL/min/kg
O=c1nc2n(c3c1CN(Cc1ccccc1)CC3)CCN2Cc1ccccc1 | 520 | 120 | 
O=c1nc2n(c3c1CN(Cc1ccccc1)CC3)CCN2Cc1ccc(Br)cc1 | 550 | 400 | 
Cc1cccc(CN2CCn3c2nc(=O)c2c3CCN(Cc3ccccc3)C2)c1 | 300 | 390 | 
Cc1cccc(CN2CCc3c(c(=O)nc4n3CCN4Cc3ccccc3C)C2)c1 | 1500 | 510 | 
